Reference: patent US8278316B2, “Aza pyridone analogs useful as melanin concentrating hormone receptor-1 antagonists” (Bristol-Myers Squibb Company, priority 2009, dated 2012)
pKi: −log10 of the molar value.

target: T1, human melanin concentrating hormone receptor (MCHR1) (Homo sapiens, UniProt Q99705, A5T/E4Q); assay: Radioligand binding assay for assessment of MCHR1 activity; settings: membranes from HEK-293 cells expressing mutated (E4Q, AST) hMCHR1; competition with 0.06-0.1 nM [Phe13,[125I]Tyr19]-MCH, 90 min
T1 construct: expressed in transfected cells; host or cells: HEK-293 (stably transfected), membranes
Method: Compounds of Formula I were initially characterized in an in vitro binding assay to determine their Ki or ability to antagonize binding of a peptide agonist to the human melanin concentrating hormone receptor (MCHR1).
Membranes from stably transfected HEK-293 cells expressing a mutated (E4Q, AST) hMCHR1 receptor were prepared by dounce homogenization and differential centrifugation. Binding experiments were carried out with 0.5-1.0 ug of membrane protein incubated in a total of 0.2 ml in 25 mM HEPES (pH 7.4) with 10 mM MgCl2, 2 mM EGTA, and 0.1% BSA (Binding Buffer) for 90 min. For competition binding assays, reactions were carried out in the presence of with 0.06-0.1 nM [Phe^13, [^125I]Tyr^19]-MCH and increasing concentrations of unlabeled test molecules. Reactions were terminated by rapid vacuum filtration over 96 well-GFC Unifilter plates pre-coated with 0.075 ml binding buffer containing 1% BSA, and washed 3 times with 0.4 ml of Phospho-buffered Saline (pH 7.4) containing 0.01% TX-100. Filters were dried; 0.05 ml microscint 20 was added to each well and radioactivity was subsequently quantified by scintillation counting on a TOPCOUNT® microplate scintillation counter (Packard). Inhibitory constants were determined by nonlinear least squares analysis using a four parameter logistic equation.

T1 sequence (Q99705 whole entry E4Q/A5T): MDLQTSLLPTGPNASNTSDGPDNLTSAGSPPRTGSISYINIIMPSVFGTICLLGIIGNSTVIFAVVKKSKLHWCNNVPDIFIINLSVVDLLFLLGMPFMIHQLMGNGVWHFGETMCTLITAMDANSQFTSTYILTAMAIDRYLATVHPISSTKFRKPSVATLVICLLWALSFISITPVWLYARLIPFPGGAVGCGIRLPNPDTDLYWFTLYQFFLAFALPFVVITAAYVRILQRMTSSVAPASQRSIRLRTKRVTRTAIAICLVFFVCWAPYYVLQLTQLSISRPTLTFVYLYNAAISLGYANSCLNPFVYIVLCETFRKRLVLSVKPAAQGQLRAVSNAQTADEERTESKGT

Row | Compound | pKi
1 | COc1cc(-n2ccc(SCc3ccc(Cl)cc3)nc2=O)ccc1OCC(C)(C)O [Example A1, 4-(4-Chlorobenzylthio)-1-(4-(2-hydroxy-2-methylpropoxy)-3-methoxyphenyl)pyrimidin-2(1H)-one] | 7.39
2 | COc1cc(-n2ccc(OCc3ccc(Cl)c(Cl)c3)nc2=O)ccc1OCC(C)(C)O [Example A13] | 5.94
3 | Cc1cc(-n2ccc(NCc3ccc(Cl)cc3)nc2=O)ccc1OCC(C)(C)O [Example A17] | 6.34
4 | COc1cc(-n2ccc(C#Cc3ccccc3)nc2=O)ccc1OCC(C)(C)O [Example B1, 1-(4-(2-Hydroxy-2-methylpropoxy)-3-methoxyphenyl)-4-(phenylethynyl)pyrimidin-2(1H)-one] | 7.41
5 | COc1cc(-n2ccc(COc3ccccc3F)nc2=O)ccc1OCC(C)(C)O [Example C5] | 5.66
6 | COc1cc(-n2ncc(C#Cc3ccccc3)cc2=O)ccc1OCC(O)C1CC1 (stereo not drawn) [Example D2] | 7.43
7 | COc1cc(-n2ncc(CSc3ccc(Cl)cc3)cc2=O)ccc1OCC(C)(C)O [Example E1, 5-((4-Chlorophenylthio)methyl)-2-(4-(2-hydroxy-2-methylpropoxy)-3-methoxyphenyl)pyridazin-3(2H)-one] | 5.97
8 | COc1cc(-n2cnc(CSc3ccc(F)cc3)cc2=O)ccc1OCC(C)(C)O [Example G3] | 6.42
9 | COc1cc(-n2cnc(OCc3ccc(Cl)cc3)cc2=O)ccc1OCC(C)(C)O [Example H1, 6-(4-Chlorobenzyloxy)-3-(4-(2-hydroxy-2-methylpropoxy)-3-methoxyphenyl)pyrimidin-4(3H)-one] | 7.46
10 | COc1cc(-n2cnc(SCc3ccc(Cl)cc3)cc2=O)ccc1OCC(C)(C)O [Example H2] | 8.15
11 | COc1cc(-n2cnc(SCc3ccc(Cl)cc3)cc2=O)ccc1OCC(O)C1CC1 (stereo not drawn) [Example H6] | 7.96
12 | COc1cc(-n2cnc(/C=C/c3ccc(Cl)cc3)cc2=O)ccc1OCC(C)(C)O [Example J1, (E)-6-(4-Chlorostyryl)-3-(4-(2-hydroxy-2-methylpropoxy)-3-methoxyphenyl)pyrimidin-4(3H)-one] | 7.64
